Columns and labels:
[1] = tested on: contractions of isolated rabbit aorta rings induced by angiotensin II (AII); assay: Inhibition of the vascular contraction induced by angiotensin II in isolated rabbit aorta rings in vitro; format: cell-based; details: Oryctolagus cuniculus, based on the 3rd = submaximal agonist concentration, read-out: IC50 against contractions induced by AII
Protocol: Investigation of the inhibition of the contraction induced by agonists
Rabbits of either sex are stunned by a blow to the back of the head and bled out, or in some cases anaesthetised with Nembutal (about 60-80 mg/kg i.v.) and sacrificed by opening the thorax. The thorax aorta is removed, freed from adhering connective tissue, divided into ring segments 1.5 mm wide and individually transferred under an initial loading of about 3.5 g to 10 ml organ baths containing Krebs-Henseleit nutrient solution, aerated with 95% O2 /5% CO2 and temperature-controlled at 37° C., of the following composition: 119 mmol/l of NaCl; 2.5 mmol/l of CaCl2 ×2H2 O; 1.2 mmol/l of KH2 PO4; 10 mmol/l of glucose; 4.8 mmol/l of KCl; 1.4 mmol/l of MgSO4 ×7 H2 O and 25 mmol/l of NaHCO3.
The contractions are determined isometrically by means of Statham UC2 cells via bridge amplifiers (ifd Mulheim or DSM Aalen) and digitalised by means of A/D converters (System 570, Keithley Munich) and assessed. The agonist dose response curves (DRCs) are plotted hourly. With each DRC, 3 or 4 individual concentrations are applied to the baths at a 4 min interval. After the end of the DRC and subsequent washing-out cycles (16 times in each case about 5 sec/min with the abovementioned nutrient solution), a 28-minute resting or incubation phase follows, within which the contractions as a rule reach the starting value again.
The height of the 3rd DRC, in a normal case, is used as a reference quantity for the assessment of the test substance to be investigated in further runs, which substance is applied to the baths in the following DRCs in increasing dose in each case at the start of the incubation period. Each aorta ring is in this case stimulated for the whole day, always with the same agonist.
Agonists and their standard concentrations (administration volume per individual dose=100 μl):
To calculate the IC50 (concentration at which the substance to be investigated causes a 50% inhibition), the effect is in each case based on the 3rd=submaximal agonist concentration.

angiotensin II receptor = biological target: T1, angiotensin II receptor (Bos taurus, UniProt P25104); assay: Angiotensin II receptor binding in membrane fractions of the adrenal cortex (bovine); details: bovine adrenal cortex membranes; 3H-angiotensin II (3-5 nM); 60 min, room temperature, pH 7.2
T1 construct: partially purified membrane fractions of bovine AGC using radioactive angiotensin II; from tissue; host or cells: bovine adrenal gland cortex, partially purified membrane fractions
T1 sequence (P25104 1-359): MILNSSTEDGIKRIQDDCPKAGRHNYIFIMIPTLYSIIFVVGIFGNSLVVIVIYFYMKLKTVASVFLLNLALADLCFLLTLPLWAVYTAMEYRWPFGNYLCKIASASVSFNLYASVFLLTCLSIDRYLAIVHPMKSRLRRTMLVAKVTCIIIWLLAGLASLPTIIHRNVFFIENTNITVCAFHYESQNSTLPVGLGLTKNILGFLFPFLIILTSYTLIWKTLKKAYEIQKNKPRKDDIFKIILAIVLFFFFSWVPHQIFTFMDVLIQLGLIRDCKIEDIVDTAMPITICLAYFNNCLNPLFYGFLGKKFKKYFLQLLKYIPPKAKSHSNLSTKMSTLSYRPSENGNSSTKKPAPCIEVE
Text: Interaction of the compounds according to the invention with the angiotensin II receptor in membrane fractions of the adrenal cortex (bovine)
Adrenal gland cortices from cattle (AGCs), which have been freshly removed and carefully freed from gland medulla, are comminuted in sucrose solution (0.32M) with the aid of an Ultra-Turrax (Janke & Kunkel, Staufen i.B.) to give a coarse membrane homogenate and partially purified to give membrane fractions in two centrifugation steps.
The receptor binding investigations are carried out on partially purified membrane fractions of bovine AGC using radioactive angiotensin II in an assay volume of 0.25 ml, which specifically contains the partially purified membranes (50-80 μg), ^3 H-angiotensin II (3-5 nM), test buffer solution (50 mM Tris, pH 7.2, 5 mM MgCl2) and the substances to be investigated. After an incubation period of 60 min at room temperature, the unbound radioactivity of the samples is separated by means of moistened glass fibre filters (Whatman GF/C) and the bound radioactivity is measured […] in a scintillation cocktail after washing the protein with ice-cold buffer solution (50 mM Tris/HCl, pH 7.4, 5% PEG 6000). The raw data were analysed using computer programs to give Ki or IC50 values (K1 : IC50 values corrected for the radioactivity used; IC50 values: concentration at which the substance to be investigated causes a 50% inhibition of the specific binding of the radioligand).

[2] = tested on: smooth muscle cells from aortas of pigs; assay: Inhibition of the proliferation of smooth muscle cells (3H-thymidine incorporation); format: cell-based, pig; details: porcine aortic smooth muscle cells
Protocol: Investigation of the inhibition of the proliferation of smooth muscle cells by the compounds according to the invention
To determine the antiproliferative action of the compounds, smooth muscle cells are used which are obtained from aortas of pigs by the media explant technique [R. Ross, J. Cell. Biol. 50, 172, 1971]. The cells are inoculated into suitable culture dishes, as a rule 96-hole plates, and cultured at 37° C. in 5% CO2 for 2-3 days in medium 199 containing 7.5% FCS and 7.5% NCS, 2 mmol L-glutamine and 15 mmol HEPES, pH 7.4. The cells are then synchronised for 2-3 days by withdrawal of serum and then stimulated into growth using serum or other factors. Test compounds are simultaneously added. After 16-20 hours, 1 μCi ^3 H-thymidine is added and after a further 4 hours the incorporation of this substance into the TCA-precipitatable DNA of the cells is determined.
To determine the IC50 values, the active compound concentration is calculated which, on sequential dilution of the active compound, causes half-maximal inhibition of the thymidine incorporation produced by 1% FCS.

IC50 [1] [µM]	Ki (angiotensin II receptor) [µM]	Structure (SMILES)	Inhibition [%] at 10^-6 M [2] [%]
1.4	–	CCCCc1nc(Cl)c(C(=O)O)n1Cc1ccc([C@@H]2CCCC[C@H]2C(=O)O)cc1 (relative stereo) [Example 4]	–
0.92	0.12	CCCCc1nc(Cl)c(CO)n1Cc1ccc([C@@H]2CCCC[C@H]2C(=O)NS(=O)(=O)c2ccc(C)cc2)cc1 (relative stereo) [Example 9]	–
0.24	0.072	CCCCc1nc(Cl)c(C(=O)O)n1Cc1ccc([C@@H]2CCCC[C@H]2C(=O)NS(=O)(=O)c2ccc(C)cc2)cc1 (relative stereo) [Example 13, N-(4-Tolylsulphonyl)-trans-2-[4-(2-butyl-4-chloro-5-carboxy-imidazol-1-yl-methyl)phenyl]-cyclohexane-1-carboxamide]	–
–	0.44	CCCCc1nc(Cl)c(C=O)n1Cc1ccc([C@@H]2CCCC[C@H]2c2nnn[nH]2)cc1 (relative stereo) [Example 16, 5-{trans-2-[4-(2-Butyl-4-chloro-5-formyl-imidazol-1-yl-methyl)-phenyl]-cyclohex-1-yl}-tetrazole]	–
–	–	CCCCc1nc(Cl)c(C=O)n1Cc1ccc(C2CCCCC2C(=O)N[C@H](CO)c2ccccc2)cc1 (single isomer, unassigned) [Example 6]	41
–	–	CCCCc1nc(Cl)c(C=O)n1Cc1ccc(C2CCCCC2C(=O)N[C@H](CO)c2ccccc2)cc1 (single isomer, unassigned) [Example 7]	100
–	–	CCCCc1nc(Cl)c(CO)n1Cc1ccc(C2CCCCC2C(=O)N[C@H](CO)c2ccccc2)cc1 (single isomer, unassigned) [Example 10]	12
–	–	CCCCc1nc(Cl)c(CO)n1Cc1ccc(C2CCCCC2C(=O)N[C@H](CO)c2ccccc2)cc1 (single isomer, unassigned) [Example 11]	100
